The target in the test is T1, Purified recombinant HIV-1 integrase (Human immunodeficiency virus type 1 group M subtype B, UniProt P04585).
T1 construct: Purified recombinant HIV-1 integrase
The test is described as follows: in vitro HIV-1 integrase integration (strand transfer) assay. The class given is biochemical. The following applies: compound at 70 μM; immobilized precleaved substrate DNA, biotinylated target DNA, 1 hour at 37° C. As for the experimental part:
The in vitro activities, against integrase, of compounds of the present invention, were measured in a manner which was similar to previously disclosed methods (cf. Hazuda, D. J.; Felock, P.; Witmer, M.; Wolfe, A.; Stillmock, K.; Grobler, J. A.; Espeseth, A.; Gabryelski, L.; Schleif, W.; Blau, C.; Miller, M. D. Science, 2000, 287, 646) Purified recombinant HIV-1 integrase was incubated with immobilized precleaved substrate DNA in a 96 well plate for 20 min at 37° C. After the integration complex was formed, compounds at desired concentrations were added to the wells followed by a 10 min incubation at 37° C. Biotinyted Target DNA was then added and the reaction was carried out for an additional 1 hour at 37° C. Wells were then washed thoroughly to remove any free DNA and integration activity was measured by using a commercial kit to quantitate the amount of biotinyted target DNA integrated into the substrate.

`O=C(/C=C(\O)C(=O)O)CC(=O)c1cccc(Cl)c1` [Compound 10, 6-(3-Chloro-phenyl)-2-hydroxy-4,6-dioxo-hex-2-enoic Acid]: the inhibition at 70 µM is 88%.
Take `O=C(/C=C(\O)C(=O)O)CCc1ccccc1Cl` [Compound 1, 6-(2-chloro-phenyl)-2-hydroxy-4-oxo-hex-2-enoic Acid]: the inhibition at 70 µM stood at 70%.
Turning to `O=C(/C=C(\O)C(=O)O)CC(=O)c1cc(Cl)ccc1Cl` [Compound 12, 6-(2,5-Dichloro-phenyl)2-hydroxy-4,6-dioxo-hex-2-enoic Acid], the inhibition at 70 µM turned out to be 98%.
On to `O=C(/C=C(\O)C(=O)O)CC(=O)c1ccccc1F` [Compound 11, 6-(2-Fluoro-phenyl)-2-hydroxy-4,6,-dioxo-hex-2-enoic Acid], for which the inhibition at 70 µM stood at 86%.
The same measure for `O=C(/C=C(\O)C(=O)O)CC(=O)c1ccccc1` [Compound 13, 2-Hydroxy-4,6-dioxo-6-phenyl-hex-2-enoic Acid]: 50%.
Consider `O=C(/C=C(\O)C(=O)O)CCc1ccccc1Br` [Compound 2, 6-(2-Bromo-phenyl)-2-hydroxy-4-oxo-hex-2-enoic Acid], for which the inhibition at 70 µM amounted to 90%.
With `O=C(/C=C(\O)C(=O)O)CC(=O)c1ccccc1OCc1ccccc1` [Compound 4, 6-(2-Benzyloxy-phenyl)-2-hydroxy-4,6,-dioxo-hex-2-enoic Acid], the inhibition at 70 µM was 97%.
On to `O=C(/C=C(\O)C(=O)O)CC(=O)c1ccccc1C(F)(F)F` [Compound 5, 2-Hydroxy-4,6-dioxo-6-(2-trifluoromethyl-phenyl)-hex-2-enoic Acid], for which the inhibition at 70 µM was 90%.
With `COc1ccccc1C(=O)CC(=O)/C=C(\O)C(=O)O` [Compound 6, 2-Hydroxy-6-(2-methoxy-phenyl)-4,6-dioxo-hex-2-enoic Acid], the inhibition at 70 µM was determined as 90%.
Turning to `O=C(/C=C(\O)C(=O)O)CC(=O)c1ccc2ccccc2c1` [Compound 7, 2-Hydroxy-6-naphthalen-2-yl-4,6-dioxo-hex-2-enoic Acid], the inhibition at 70 µM was determined as 95%.
For the compound `O=C(/C=C(\O)C(=O)O)CC(=O)c1ccc(-c2ccccc2)cc1` [Compound 9, 6-Biphenyl-4-yl-2-hydroxy-4,6-dioxo-hex-2-enoic Acid], the inhibition at 70 µM was determined as 99%.
For `O=C(/C=C(\O)C(=O)O)CC(=O)c1ccc(Cl)cc1Cl` [Compound 8, 6-(2,4,-Dichloro-phenyl)-2-hydroxy-4,6-dioxo-hex-2-enoic Acid], the inhibition at 70 µM worked out at 95%.
On to `O=C(/C=C(\O)C(=O)O)CCc1ccccc1` [Compound 3, 2-Hydroxy-4-oxo-phenyl-hex-2-enoic Acid], for which the inhibition at 70 µM worked out at 60%.

One may read the inhibition as how much of the control response was suppressed.

Values taken from patent US6548546B2, “HIV integrase inhibitors” (Bristol-Myers Squibb Company, priority 2000, dated 2003).
